Measurements published in ChEMBL document CHEMBL5291721, “A preclinical secondary pharmacology resource illuminates target-adverse drug reaction associations of marketed drugs” (Nat Commun, 2023).

Tests used:
Mu-type opioid receptor = Mu-type opioid receptor (Homo sapiens, UniProt P35372)
[1] = target: Gamma-aminobutyric acid receptor subunit alpha-1 (Rattus norvegicus, UniProt P62813); assay type: functional
Endothelin-1 receptor = target: T1, Endothelin-1 receptor (Homo sapiens, UniProt P25101)
T1 sequence (P25101 whole entry): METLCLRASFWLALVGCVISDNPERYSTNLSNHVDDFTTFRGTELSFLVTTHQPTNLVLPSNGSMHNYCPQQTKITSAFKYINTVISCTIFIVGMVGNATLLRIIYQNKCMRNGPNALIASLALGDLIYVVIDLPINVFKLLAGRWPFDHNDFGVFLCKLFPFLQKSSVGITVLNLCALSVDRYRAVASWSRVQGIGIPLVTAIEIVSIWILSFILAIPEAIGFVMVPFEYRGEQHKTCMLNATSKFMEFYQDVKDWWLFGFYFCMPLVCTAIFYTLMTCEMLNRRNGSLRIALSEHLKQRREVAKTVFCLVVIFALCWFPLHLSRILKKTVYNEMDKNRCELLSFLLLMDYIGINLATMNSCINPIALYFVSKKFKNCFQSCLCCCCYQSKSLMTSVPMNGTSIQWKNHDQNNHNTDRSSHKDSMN

Vasopressin V2 receptor = Vasopressin V2 receptor (Homo sapiens, UniProt P30518)
D(1A) dopamine receptor = D(1A) dopamine receptor (Homo sapiens, UniProt P21728); assay type: functional, cell-based
B2 bradykinin receptor = target: T2, B2 bradykinin receptor (Homo sapiens, UniProt P30411)
T2 sequence (P30411 whole entry): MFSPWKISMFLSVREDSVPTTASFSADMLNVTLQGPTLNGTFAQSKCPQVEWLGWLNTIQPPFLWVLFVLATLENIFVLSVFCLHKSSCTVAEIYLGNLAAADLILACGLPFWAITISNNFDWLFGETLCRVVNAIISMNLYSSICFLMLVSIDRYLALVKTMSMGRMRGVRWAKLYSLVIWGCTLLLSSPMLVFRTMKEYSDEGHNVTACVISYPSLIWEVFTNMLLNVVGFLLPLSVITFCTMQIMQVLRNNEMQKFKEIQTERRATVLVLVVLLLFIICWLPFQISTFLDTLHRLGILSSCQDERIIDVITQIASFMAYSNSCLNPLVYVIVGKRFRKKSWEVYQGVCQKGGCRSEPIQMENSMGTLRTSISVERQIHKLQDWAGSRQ

[2] = target: T3, 5-hydroxytryptamine receptor 3A (Homo sapiens, UniProt P46098); assay type: functional
T3 sequence (P46098 whole entry): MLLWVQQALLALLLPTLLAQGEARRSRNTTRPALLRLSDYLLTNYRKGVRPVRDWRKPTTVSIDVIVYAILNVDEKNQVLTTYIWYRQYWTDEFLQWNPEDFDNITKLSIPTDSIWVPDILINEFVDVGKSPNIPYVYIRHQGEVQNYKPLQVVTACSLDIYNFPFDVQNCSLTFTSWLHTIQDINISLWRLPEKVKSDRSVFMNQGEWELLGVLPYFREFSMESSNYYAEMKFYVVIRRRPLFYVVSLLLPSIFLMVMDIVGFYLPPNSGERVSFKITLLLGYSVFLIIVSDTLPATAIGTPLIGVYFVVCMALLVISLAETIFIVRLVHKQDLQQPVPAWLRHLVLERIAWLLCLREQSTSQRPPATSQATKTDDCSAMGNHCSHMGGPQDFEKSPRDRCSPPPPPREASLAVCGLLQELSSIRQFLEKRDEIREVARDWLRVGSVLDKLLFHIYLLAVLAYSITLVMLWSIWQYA

Estrogen receptor = target: T4, Estrogen receptor (Homo sapiens, UniProt P03372)
T4 sequence (P03372 whole entry): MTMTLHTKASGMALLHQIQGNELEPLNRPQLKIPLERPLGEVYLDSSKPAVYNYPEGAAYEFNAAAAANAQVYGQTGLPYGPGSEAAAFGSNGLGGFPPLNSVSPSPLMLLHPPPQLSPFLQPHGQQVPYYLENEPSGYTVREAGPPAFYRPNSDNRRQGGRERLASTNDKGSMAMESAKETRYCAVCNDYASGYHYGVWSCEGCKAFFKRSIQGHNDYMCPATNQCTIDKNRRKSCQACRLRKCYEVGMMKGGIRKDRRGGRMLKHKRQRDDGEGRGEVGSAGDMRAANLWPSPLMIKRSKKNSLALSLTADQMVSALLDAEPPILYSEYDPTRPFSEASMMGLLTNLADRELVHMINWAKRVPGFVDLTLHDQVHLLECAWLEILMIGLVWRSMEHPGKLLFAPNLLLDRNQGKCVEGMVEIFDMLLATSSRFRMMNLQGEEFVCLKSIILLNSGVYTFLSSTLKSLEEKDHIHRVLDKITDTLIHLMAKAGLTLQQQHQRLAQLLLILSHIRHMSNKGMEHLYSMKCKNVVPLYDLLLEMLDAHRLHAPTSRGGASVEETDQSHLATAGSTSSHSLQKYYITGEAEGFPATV
Note: assay procedure not described here.

Chain of D(1A) dopamine receptor (P21728 whole entry): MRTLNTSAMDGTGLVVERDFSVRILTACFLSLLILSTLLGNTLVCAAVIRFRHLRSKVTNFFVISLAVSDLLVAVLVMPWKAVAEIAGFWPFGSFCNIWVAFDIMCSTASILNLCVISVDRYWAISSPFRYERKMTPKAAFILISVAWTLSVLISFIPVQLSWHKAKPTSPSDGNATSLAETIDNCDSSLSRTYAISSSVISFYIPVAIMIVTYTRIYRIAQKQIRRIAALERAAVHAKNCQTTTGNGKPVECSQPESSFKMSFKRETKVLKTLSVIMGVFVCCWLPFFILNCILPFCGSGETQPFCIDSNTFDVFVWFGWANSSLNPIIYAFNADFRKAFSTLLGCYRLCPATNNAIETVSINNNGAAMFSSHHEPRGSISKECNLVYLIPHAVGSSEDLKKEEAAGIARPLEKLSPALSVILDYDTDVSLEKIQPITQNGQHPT
Chain of Vasopressin V2 receptor (P30518 whole entry): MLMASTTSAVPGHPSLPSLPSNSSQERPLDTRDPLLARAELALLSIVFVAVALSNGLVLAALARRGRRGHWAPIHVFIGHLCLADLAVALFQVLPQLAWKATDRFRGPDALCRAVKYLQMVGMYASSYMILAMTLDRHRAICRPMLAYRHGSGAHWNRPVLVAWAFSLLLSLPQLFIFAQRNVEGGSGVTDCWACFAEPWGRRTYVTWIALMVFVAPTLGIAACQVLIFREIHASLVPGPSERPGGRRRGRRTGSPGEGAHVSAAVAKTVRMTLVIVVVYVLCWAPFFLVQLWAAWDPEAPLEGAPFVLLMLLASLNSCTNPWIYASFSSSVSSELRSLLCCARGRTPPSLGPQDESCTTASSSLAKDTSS
Chain of Mu-type opioid receptor (P35372 whole entry): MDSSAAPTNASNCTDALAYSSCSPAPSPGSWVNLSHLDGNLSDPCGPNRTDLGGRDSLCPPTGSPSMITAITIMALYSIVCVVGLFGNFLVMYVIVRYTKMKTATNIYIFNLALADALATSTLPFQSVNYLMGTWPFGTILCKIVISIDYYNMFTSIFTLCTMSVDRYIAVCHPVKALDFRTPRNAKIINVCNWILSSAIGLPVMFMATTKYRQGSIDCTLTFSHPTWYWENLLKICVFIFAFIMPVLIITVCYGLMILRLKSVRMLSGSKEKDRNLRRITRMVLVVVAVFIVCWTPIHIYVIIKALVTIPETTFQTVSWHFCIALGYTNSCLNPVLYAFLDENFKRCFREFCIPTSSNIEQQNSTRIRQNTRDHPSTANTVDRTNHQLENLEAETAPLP
Chain of Gamma-aminobutyric acid receptor subunit alpha-1 (P62813 whole entry): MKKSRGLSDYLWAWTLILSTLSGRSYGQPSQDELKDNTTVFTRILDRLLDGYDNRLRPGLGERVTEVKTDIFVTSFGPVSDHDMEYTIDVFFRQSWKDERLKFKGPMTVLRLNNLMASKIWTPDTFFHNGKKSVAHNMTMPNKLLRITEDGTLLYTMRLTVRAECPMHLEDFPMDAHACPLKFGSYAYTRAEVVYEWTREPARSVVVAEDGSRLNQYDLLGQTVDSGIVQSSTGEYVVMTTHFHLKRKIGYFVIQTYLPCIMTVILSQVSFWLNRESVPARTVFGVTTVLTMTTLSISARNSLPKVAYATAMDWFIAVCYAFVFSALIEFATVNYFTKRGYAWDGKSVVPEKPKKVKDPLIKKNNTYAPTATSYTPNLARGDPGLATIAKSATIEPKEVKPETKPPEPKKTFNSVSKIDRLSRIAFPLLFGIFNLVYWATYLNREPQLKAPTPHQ

Row | Compound | AC50 (Mu-type opioid receptor) | AC50 [1] | AC50 (Endothelin-1 receptor) | AC50 (Vasopressin V2 receptor) | AC50 (D(1A) dopamine receptor) | AC50 (B2 bradykinin receptor) | AC50 [2] | AC50 (Estrogen receptor)
1 | CCOc1nc2cccc(C(=O)O)c2n1Cc1ccc(-c2ccccc2-c2nnn[nH]2)cc1 | > 30 µM | > 30 µM | > 30 µM | > 30 µM | > 30 µM | > 30 µM | > 30 µM | –
2 | CCOc1cc([C@@H](CS(C)(=O)=O)N2C(=O)c3cccc(NC(C)=O)c3C2=O)ccc1OC | > 30 µM | > 30 µM | > 30 µM | – | > 30 µM | – | > 30 µM | –
3 | CC(=O)Nc1ccc(CC(=O)O)cc1 [ACTARIT] | – | > 30 µM | > 30 µM | > 30 µM | > 30 µM | > 30 µM | > 30 µM | –
4 | CC(C(=O)O)c1ccc2oc(-c3ccc(Cl)cc3)nc2c1 (stereo not given) [BENOXAPROFEN] | – | > 30 µM | > 30 µM | > 30 µM | > 30 µM | > 30 µM | > 30 µM | –
5 | O=C(O)c1ccccc1 [BENZOIC ACID] | – | – | – | – | – | – | – | > 30 µM
6 | Nc1c(CC(=O)O)cccc1C(=O)c1ccc(Br)cc1 [BROMFENAC] | – | – | – | – | – | – | – | > 30 µM
7 | CC1(C)S[C@@H]2[C@H](NC(=O)C(C(=O)O)c3ccccc3)C(=O)N2[C@H]1C(=O)O (stereo not given in full) [CARBENICILLIN] | – | > 30 µM | > 30 µM | > 30 µM | > 30 µM | > 30 µM | > 30 µM | –
8 | Cc1nnc(SCC2=C(C(=O)O)N3C(=O)[C@@H](NC(=O)Cn4cnnn4)[C@H]3SC2)s1 [CEFAZOLIN] | > 300 µM | > 300 µM | > 300 µM | > 30 µM | > 300 µM | > 30 µM | > 300 µM | –
9 | CC=CC1=C(C(=O)O)N2C(=O)[C@@H](NC(=O)[C@H](N)c3ccc(O)cc3)[C@H]2SC1 [CEFPROZIL] | – | > 30 µM | – | > 30 µM | > 30 µM | > 30 µM | > 30 µM | –
10 | CC(C)(O/N=C(\C(=O)N[C@@H]1C(=O)N2C(C(=O)[O-])=C(C[n+]3ccccc3)CS[C@H]12)c1csc(N)n1)C(=O)O [CEFTAZIDIME] | > 300 µM | > 300 µM | > 300 µM | > 30 µM | > 300 µM | > 30 µM | > 300 µM | –
11 | CCCNC(=O)NS(=O)(=O)c1ccc(Cl)cc1 [CHLORPROPAMIDE] | > 30 µM | > 10 µM | > 30 µM | > 30 µM | > 10 µM | > 30 µM | > 30 µM | –
12 | Clc1ccc(Cn2c(CN3CCCC3)nc3ccccc32)cc1 [CLEMIZOLE] | > 30 µM | > 30 µM | > 30 µM | – | > 30 µM | – | > 30 µM | –
13 | CCC(=O)O[C@]1(C(=O)CCl)[C@@H](C)C[C@H]2[C@@H]3CCC4=CC(=O)C=C[C@]4(C)[C@@]3(F)[C@@H](O)C[C@@]21C [CLOBETASOL PROPIONATE] | – | > 30 µM | > 30 µM | > 30 µM | > 30 µM | > 30 µM | > 30 µM | –
14 | Cc1nc(Nc2ncc(C(=O)Nc3c(C)cccc3Cl)s2)cc(N2CCN(CCO)CC2)n1 [DASATINIB] | > 30 µM | – | > 30 µM | > 30 µM | > 30 µM | > 30 µM | > 30 µM | –
15 | CC(C)Cc1ccc([C@H](C)C(=O)O)cc1 [DEXIBUPROFEN] | > 30 µM | > 30 µM | > 30 µM | – | > 30 µM | – | > 30 µM | –
16 | O=C(O)Cc1ccccc1Nc1c(Cl)cccc1Cl [DICLOFENAC] | > 30 µM | > 10 µM | > 30 µM | > 30 µM | > 10 µM | > 30 µM | > 10 µM | –
17 | CNC[C@H](O)c1ccc(O)c(O)c1 [EPINEPHRINE] | – | > 30 µM | > 30 µM | – | – | – | > 30 µM | –
18 | Cc1onc(-c2c(F)cccc2Cl)c1C(=O)N[C@@H]1C(=O)N2[C@@H]1SC(C)(C)[C@@H]2C(=O)O [FLOXACILLIN] | > 30 µM | > 30 µM | > 30 µM | – | > 30 µM | – | > 30 µM | –
19 | CCCCCCCN(CC)CCCC(O)c1ccc(NS(C)(=O)=O)cc1 (stereo not given) [IBUTILIDE] | – | > 30 µM | > 30 µM | > 30 µM | > 30 µM | > 30 µM | > 30 µM | –
20 | CC[C@H](C)C(=O)O[C@H]1C[C@@H](C)C=C2C=C[C@H](C)[C@H](CC[C@@H]3C[C@@H](O)CC(=O)O3)[C@H]21 [LOVASTATIN] | > 30 µM | > 10 µM | > 30 µM | > 30 µM | > 10 µM | > 30 µM | > 30 µM | –
21 | CC[C@@H](CO)NC(=O)[C@@H]1C=C2c3cccc4c3c(cn4C)C[C@H]2N(C)C1 [METHYSERGIDE] | > 30 µM | > 10 µM | > 30 µM | > 30 µM | – | > 30 µM | > 30 µM | –
22 | CNC(=C[N+](=O)[O-])NCCSCc1csc(CN(C)C)n1 [NIZATIDINE] | > 30 µM | > 10 µM | – | > 10 µM | > 10 µM | > 10 µM | > 30 µM | –
23 | CN1Cc2c(N)cccc2C(c2ccccc2)C1 (stereo not given) [NOMIFENSINE] | 4.4 µM | > 30 µM | > 30 µM | > 30 µM | > 30 µM | > 30 µM | > 30 µM | –
24 | CC(CN1c2ccccc2Sc2ccccc21)N(C)C (stereo not given) [PROMETHAZINE] | – | > 10 µM | > 30 µM | > 30 µM | > 10 µM | > 30 µM | > 30 µM | –
25 | CCCc1cc(=O)[nH]c(=S)[nH]1 [PROPYLTHIOURACIL] | > 30 µM | > 10 µM | – | > 10 µM | > 10 µM | > 10 µM | > 30 µM | –
26 | Cn1cc(C(=O)[C@@H]2CCc3nc[nH]c3C2)c2ccccc21 [RAMOSETRON] | – | 17 µM | > 30 µM | > 30 µM | > 30 µM | > 30 µM | 0.0004 µM | –
27 | CN(CCOc1ccc(CC2SC(=O)NC2=O)cc1)c1ccccn1 (stereo not given) [ROSIGLITAZONE] | > 10 µM | > 30 µM | > 30 µM | > 30 µM | > 30 µM | > 30 µM | > 30 µM | –
28 | S=P(N1CC1)(N1CC1)N1CC1 [THIOTEPA] | 28 µM | > 30 µM | > 30 µM | – | > 30 µM | – | > 30 µM | –
29 | CC(C)[C@H](N)C(=O)OCCOCn1cnc2c(=O)[nH]c(N)nc21 [VALACYCLOVIR] | > 30 µM | > 10 µM | > 30 µM | > 30 µM | > 10 µM | > 30 µM | > 30 µM | –
30 | COc1cc(C(=O)NS(=O)(=O)c2ccccc2C)ccc1Cc1cn(C)c2ccc(NC(=O)OC3CCCC3)cc12 [ZAFIRLUKAST] | > 30 µM | > 10 µM | – | > 10 µM | > 10 µM | > 10 µM | > 30 µM | –
